In paper PMC8063026 (Frontiers in Pharmacology, 2021):
Read-outs that look alike come from different tables or passages of the source.

Columns and labels:
[1] = target: T1, SERT (Homo sapiens, UniProt P31645); assay: Uptake-inhibition of [3H]5-HT in HEK293 cells stably expressing human SERT; format: cell-based
T1 construct: expressed in transfected cells

[2] = LC-MS/MS detection of mephedrone metabolites in a human urine sample; format: in vivo; design: key to Detected in urine samples: detected (+); not detected (−); conditions: for Detected in urine samples: human urine, mephedrone user, only syn- and anti-configurations could be separated; for detection in human urine sample: achiral LC-MS/MS, after enzymatic workup
Text: The biological specimen, human urine, was provided by the Department of Chemical Analytics, Seibersdorf Laboratories GmbH. The sample was taken from a subject postmortem in a fatal case of drug overdose. […] Given this fact, we assumed that also the metabolites would be detectable in sufficient quantity. To evaluate the presence of any metabolites whatsoever in the urine sample we designed an achiral separation protocol for liquid chromatography and we coupled it with triple quadrupole mass spectrometer. The advantage of LC-MS/MS system is that even if two substances have the same retention time, they can still be differentiated by their fragmentation pattern. More in details, the samples for urine analysis were analyzed using a CTC HTS PAL autosampler (CTC Analytics) and a Thermo Surveyor LC system (Thermo) interfaced to a TSQ Quantum Discovery Max triple quadrupole mass spectrometer (Thermo). A C18 security guard cartridge (4 × 2 mm) (Phenomenex) was used for sample clean-up and the analytical HPLC column was a Kinetex 1.7 μm C18 100Å 150 × 2.1 mm (Phenomenex) and Cortecs T3, 2.7 μm C18 120Å 100 × 2.1 mm (Waters). Column selection was performed by a Maylab Mistraswitch column selector (Maylab Analytical Instruments). The solvents were 0.2% formic acid in water (A) and acetonitrile (B). The temperature of the analytical column was maintained at 40°C. The mass spectrometer was equipped with heated electrospray ionization (ESI) source and was operated in positive ionization mode with a spray voltage set at 4500V. The capillary temperature was adjusted to 320°C. The sheath and auxiliary gas (nitrogen) flow rate was 25 and 10 arbitrary units, respectively. The system was operated in selected […] (srm) mode with argon as the collision gas at a pressure of 1.5 mTorr. For the achiral separation, stem solutions were prepared by weighing the reference substances in volumetric flasks and filling them up with MeOH (99.9%; HPLC grade), creating average concentration of 1 mg/ml. Then dilution solutions were prepared as follows: 10 μL of stem solution was filled up to 5 ml MeOH, creating dilution […]. Samples were prepared from dilution solutions by taking out 25 μL and mixing it together with 25 μL of ISP, 50 μL ISS and filled up to 1 ml with Milli-Q water. The final sample solvent was water/MeOH 9/1. For the enzymatic workup, phosphate buffer (1 ml, 0.8M, pH = 7), β-glucuronidase/arylsulfatase (25 μL) and β-glucuronidase (25 μL) were added to the solutions. The solutions were heated at 50°C during 1 h upon which EtOAc (7 ml) was added. The solution was put into shaker for 10min, following centrifugation for 5 min. The organic phase was separated and evaporated into dryness in stream of pressurized nitrogen. The residue was taken up in 150 μL MQ-water/MeOH 9/1 + 0.4% formic acid, heated at 50°C for 5 min and subjected to LC-MS analysis.
If on one hand the synthesis of putative metabolites allows the establishment of structure activity relationships, on the other hand, it provides pure material to evaluate their presence in human urine samples and determine their pharmacological relevance. To determine the presence of any metabolites in the urine sample, we have designed an achiral separation protocol and coupled the liquid chromatography with triple quadrupole mass spectrometer (LCMS/MS). With the LCMS/MS system two substances with the same retention time, can still be differentiated by their fragmentation pattern. Since metabolites carrying a primary alcohol functionality can form glucuronide and sulfate conjugates, we performed an enzymatic workup of the urine sample in order to cleave them. Apart from the parental drug, we detected 4-OH-MMC and 4-MC (nor-meph) which we have both already identified in our previous publication ([Mayer et al., 2019]), and the two previously uncharacterized metabolites 4-COOH-MC and dihydro-4-MC (Figure 6). […]

[3] = target: T1, SERT; assay: Transporter electrophysiology (whole cell patch clamp), HEK293 cells stably expressing SERT; format: cell-based; conditions: compound applied at 30 µM, -60 mV
Experimental: (§1) Human embryonic kidney 293 cells (HEK293 cells) were cultivated in Dulbecco’s Modified Eagle Medium (DMEM), containing 10% heat-in- activated fetal calf serum (FCS), streptomycin (100 μg x 100 ml−1) and penicillin (100 U × 100 ml−1). Geneticin (50 μg x mL−1) was added to select HEK293 cells stably expressing the human isoforms of DAT, NET and SERT as described earlier ([Mayer et al., 2016a]). Cell lines were maintained in a sub-confluent state in humidified atmosphere (37°C, 5% CO2). For uptake inhibition experiments cells expressing the desired transporter were seeded the days before the experiment (40,000 cells per well) or two days before the experiments (20,000 cells per well) onto poly-D-lysine (PDL) coated 96-well plates 24 h prior to the experiment. In the case of transporter-electrophysiology cells were cultivated in 10 cm dishes and 24 h before the experiments they were detached, and seeded at low density onto PDL-coated 3 cm dishes.
(§2) Transporter electrophysiology was conducted by the means of whole cell patch clamp in HEK293 cells stably expressing DAT or SERT. Substrate-induced currents were recorded under voltage clamp (−60 mV). Cells were continuously superfused with a physiological external solution that contains 140 mM NaCl, 2.5 mM CaCl2, 2 mM MgCl2, 20 mM glucose and 10 mM HEPES, pH = 7.4. The pipette solution contained 133 mM potassium gluconate, 6 mM NaCl, 1 mM CaCl2, 0.7 mM MgCl2, 10 mM HEPES, 10 mM EGTA, pH = 7.2. Currents elicited by mephedrone 30 μM, were measured at room temperature (20–24°C) using an […] amplifier and pClamp 11.2 software (MDS Analytical Technologies). All the solutions perfused onto the cell were applied using a DAD-12 superfusion system and a 8-tube perfusion manifold (ALA Scientific Instruments), which allowed for rapid solution exchange. Current traces were filtered at 1 kHz and digitized at 10 kHz using a Digidata 1,550 (MDS Analytical Technologies). […] For the analysis, passive holding currents were subtracted, and the traces were filtered using a 100-Hz digital Gaussian low-pass filter.

[4] = target: T2, DAT (Homo sapiens, UniProt Q01959); assay: Transporter electrophysiology (whole cell patch clamp), HEK293 cells stably expressing DAT; format: cell-based; conditions: compound applied at 30 µM, -60 mV
T2 construct: expressed in transfected cells
Experimental: as §1, §2

[5] = target: T2, DAT; assay: cell-based
[6] = target: T3, human NET (Homo sapiens, UniProt P23975); assay: cell-based
T3 construct: expressed in transfected cells

[7] = target: T1, SERT; conditions: read-out: IC50 SERT; QSAR data matrix; unit inferred; compounds not tested in this paper, source not given, presumably ref Mayer et al., 2019; cited from earlier work
[8] = mean (95% confidence interval), non-linear regression, read-out: IC50 (µM) SERT
[9] = QSAR data matrix, from IC50 DAT, read-out: pIC50 DAT (converted)
[10] = mean (95% confidence interval), non-linear regression, read-out: IC50 (µM) DAT
[11] = mean (95% confidence interval), non-linear regression, read-out: IC50 (µM) NET
[12] = IC50 (µM) SERT, mean (95% confidence interval), non-linear regression
[13] = IC50 SERT, QSAR data matrix, unit inferred
[14] = QSAR data matrix, unit inferred, read-out: IC50 SERT

T1 sequence (P31645 whole entry): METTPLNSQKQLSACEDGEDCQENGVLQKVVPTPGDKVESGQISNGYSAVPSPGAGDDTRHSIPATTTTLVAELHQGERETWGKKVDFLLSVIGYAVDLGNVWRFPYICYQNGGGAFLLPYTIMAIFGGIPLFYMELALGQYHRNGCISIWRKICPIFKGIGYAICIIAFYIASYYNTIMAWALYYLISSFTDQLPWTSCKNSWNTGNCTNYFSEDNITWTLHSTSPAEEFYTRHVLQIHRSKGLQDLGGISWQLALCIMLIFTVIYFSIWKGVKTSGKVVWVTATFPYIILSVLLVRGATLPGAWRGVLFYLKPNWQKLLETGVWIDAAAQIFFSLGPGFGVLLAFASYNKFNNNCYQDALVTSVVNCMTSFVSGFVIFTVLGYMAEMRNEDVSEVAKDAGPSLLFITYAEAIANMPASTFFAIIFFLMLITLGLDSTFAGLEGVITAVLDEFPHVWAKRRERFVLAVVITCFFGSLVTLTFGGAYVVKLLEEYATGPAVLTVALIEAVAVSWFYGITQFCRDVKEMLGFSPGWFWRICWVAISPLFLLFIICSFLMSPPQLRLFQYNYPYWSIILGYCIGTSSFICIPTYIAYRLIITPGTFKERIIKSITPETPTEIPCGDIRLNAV
T3 sequence (P23975 whole entry): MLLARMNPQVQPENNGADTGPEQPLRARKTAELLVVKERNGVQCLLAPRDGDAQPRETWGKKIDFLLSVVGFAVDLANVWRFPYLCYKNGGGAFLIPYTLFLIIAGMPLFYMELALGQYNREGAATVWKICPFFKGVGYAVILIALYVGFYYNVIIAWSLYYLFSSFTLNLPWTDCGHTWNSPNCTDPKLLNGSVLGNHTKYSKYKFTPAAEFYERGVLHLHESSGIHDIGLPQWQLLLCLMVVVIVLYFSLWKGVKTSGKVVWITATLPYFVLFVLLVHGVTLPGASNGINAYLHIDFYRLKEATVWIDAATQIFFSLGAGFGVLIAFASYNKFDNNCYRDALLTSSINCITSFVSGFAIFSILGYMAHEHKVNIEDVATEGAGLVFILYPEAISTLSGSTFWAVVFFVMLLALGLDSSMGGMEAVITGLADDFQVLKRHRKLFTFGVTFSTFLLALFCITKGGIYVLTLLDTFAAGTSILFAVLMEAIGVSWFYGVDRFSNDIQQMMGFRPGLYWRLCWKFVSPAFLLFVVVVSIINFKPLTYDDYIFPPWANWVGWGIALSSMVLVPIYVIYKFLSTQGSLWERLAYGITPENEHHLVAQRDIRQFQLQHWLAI
T2 sequence (Q01959 whole entry): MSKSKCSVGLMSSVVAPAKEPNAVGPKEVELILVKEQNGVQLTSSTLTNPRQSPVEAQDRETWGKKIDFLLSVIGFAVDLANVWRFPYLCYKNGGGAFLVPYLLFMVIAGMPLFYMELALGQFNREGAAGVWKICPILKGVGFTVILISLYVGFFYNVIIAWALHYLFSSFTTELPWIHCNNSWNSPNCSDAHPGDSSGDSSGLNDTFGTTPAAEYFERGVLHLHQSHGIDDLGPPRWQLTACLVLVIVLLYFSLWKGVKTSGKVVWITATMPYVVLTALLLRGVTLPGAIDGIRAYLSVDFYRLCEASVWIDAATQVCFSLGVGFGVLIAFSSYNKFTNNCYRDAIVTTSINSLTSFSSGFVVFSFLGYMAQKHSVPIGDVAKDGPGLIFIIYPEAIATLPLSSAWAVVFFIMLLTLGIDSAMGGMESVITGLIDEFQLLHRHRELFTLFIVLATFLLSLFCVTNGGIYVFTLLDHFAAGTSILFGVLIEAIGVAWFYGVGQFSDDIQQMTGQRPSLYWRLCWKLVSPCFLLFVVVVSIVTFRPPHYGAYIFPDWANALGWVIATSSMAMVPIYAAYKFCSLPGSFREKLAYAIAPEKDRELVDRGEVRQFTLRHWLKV

Row | SMILES | IC50 [1, 8] [µM] | Detected in urine samples [2] | SERT-mediated current [3] | DAT-mediated current [4] | Selectivity ratio DAT/SERT [5] | IC50 [5, 9] [µM] | IC50 [5, 10] [µM] | Selectivity ratio NET/DAT [6] | IC50 [6, 11] [µM] | other results
1 | CN[C@H](C)[C@H](O)c1ccc(CO)cc1 [Dihydro-(R,R)-4-OH-MMC] | 1740 | − | did not elicit any DAT or SERT-mediated current | did not elicit any DAT or SERT-mediated current | 67.72 | 25.7 | 25.6 | 0.69 | 37 | IC50 ([1]; in Figure 3, read-out: IC50(SERT)): 1700 µM
2 | Cc1ccc([C@H](O)[C@@H](C)N)cc1 [Dihydro-(S,R)-4-MC] |  | + |  | absence of DAT-mediated current | 11.53 | 15.5 | 15.5 | 0.37 | 41.8 | IC50 [1, 12]: 178 µM; IC50 [1, 13]: 178 µM
3 | CN[C@@H](C)[C@H](O)c1ccc(CO)cc1 [Dihydro-(R,S)-4-OH-MMC] | 496 | − |  |  | 5.87 | 85.1 | 84.5 | 1.57 | 53.9 | IC50 [1, 14]: 496 µM
4 | Cc1ccc([C@@H](O)[C@H](C)N)cc1 [Dihydro-(R,S)-4-MC] |  | + | elicited only SERT-mediated currents | elicited only SERT-mediated currents | 4.94 | 13.5 | 13.5 | 0.42 | 32.4 | IC50 [1, 12]: 66.9 µM; IC50 [1, 13]: 66.9 µM
5 | CNC(C)C(O)c1ccc(CO)cc1 (stereo not shown) [dihydro-4-OH-MMC] |  |  |  |  |  |  |  |  |  | detection in human urine sample [2]: not found
6 | C[C@H](N)[C@H](O)c1ccc(CO)cc1 [Dihydro-(R,S)-4-OH-MC] | 383 | − |  |  | 3.86 | 100 | 99.1 | 1.60 | 62 | IC50 [1, 14]: 383 µM
7 | Cc1ccc(C(O)C(C)N)cc1 (stereo not shown) [dihydro-4-MC, dihydro-4-nor-mephedrone] |  |  |  |  |  |  |  |  |  | detection in human urine sample [2]: detected
8 | Cc1ccc([C@H](O)[C@H](C)N)cc1 [Dihydro-(S,S)-4-MC] |  | + | elicited only SERT-mediated currents | elicited only SERT-mediated currents | 1.42 | 22.4 | 22.6 | 2.37 | 9.51 | IC50 [1, 12]: 32.2 µM; IC50 [1, 13]: 32.2 µM
9 | CNC(C)C(=O)c1ccc(CO)cc1.Cl (stereo not shown) [4-OH-MMC, 4-OH-mephedrone, reference compound] |  |  |  |  |  |  |  |  |  | detection in human urine sample [2]: detected
10 | C[C@H](N)C(=O)c1ccc(CO)cc1 [S-4-OH-MC] | 40 | − | elicited both DAT- and SERT mediated currents | elicited both DAT- and SERT mediated currents | 2.08 |  | 19.2 | 3.22 | 5.97 | 
11 | CN[C@H](C)[C@@H](O)c1ccc(CO)cc1 [Dihydro-(S,R)-4-OH-MMC] | 3160 | − |  |  | 40.99 | 77.6 | 77 | 1.55 |  | IC50 ([6]; QSAR data matrix, from IC50 NET, read-out: pIC50 NET (converted)): 50.1 µM
12 | CN[C@H](C)C(=O)c1ccc(C)cc1 [2R-MMC, R-mephedrone, reference compound] |  |  |  |  |  | 0.776 |  |  |  | IC50 ([1]; pIC50 SERT, QSAR data matrix, from IC50 SERT): 74.1 µM; IC50 [7]: 74.8 µM; IC50 [6]: 2.75 µM
13 | Cc1ccc([C@@H](O)[C@@H](C)N)cc1 [Dihydro-(R,R)-4-MC] |  | + | elicited only SERT-mediated currents |  | 9.26 | 8.13 | 8.05 | 0.44 | 18.1 | IC50 [1, 12]: 74.6 µM; IC50 [1, 13]: 74.6 µM; DAT-mediated current ([4]; listed as dihydro-(R,R)-4-MC): absence of DAT-mediated current; DAT-mediated current ([4]; listed as dihydro-(R,R)-4 MC): elicited only SERT-mediated currents
14 | CN[C@@H](C)[C@@H](O)c1ccc(CO)cc1 [Dihydro-(S,S)-4-OH-MMC] | 1850 | − |  |  | 11.49 | 162 | 161 | 0.55 | 291 | 
15 | C[C@H](N)[C@@H](O)c1ccc(CO)cc1 [Dihydro-(S,S)-4-OH-MC] | 588 | − |  |  | 9.92 | 58.9 | 59.2 | 4.71 | 12.6 | 
16 | C[C@@H](N)[C@@H](O)c1ccc(CO)cc1 [Dihydro-(S,R)-4-OH-MC] | 1160 | − |  |  | 12.68 | 91.2 | 91.2 | 1.09 | 83.4 | 
